Source: ChEMBL document CHEMBL2146459, “Potentiation of ribonuclease cytotoxicity by a poly(amidoamine) dendrimer” (Bioorg Med Chem Lett, 2011)
Activity calls are given as the source filed them. The calls are words filed in the database; no cut-off is given here.

How the values were obtained:
[1] = target: T1, Ribonuclease pancreatic (Bos taurus) (UniProt P61823); assay: Binding affinity to bovine RNase A in PBS buffer assessed as melting temperature at 1 uM after 3 hrs by UV spectroscopy (reference value: 62.7 +/- 0.1 degC)
T1 sequence (whole entry): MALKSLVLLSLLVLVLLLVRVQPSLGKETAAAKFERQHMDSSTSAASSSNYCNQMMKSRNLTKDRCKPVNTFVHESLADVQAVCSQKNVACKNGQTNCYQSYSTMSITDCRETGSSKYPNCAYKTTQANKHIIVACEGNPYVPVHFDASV

[2] = target: T1, Ribonuclease pancreatic (Bos taurus); assay: Binding affinity to bovine RNase A in PBS assessed as melting temperature at 10 uM after 3 hrs by UV spectroscopy (reference value: 62.7 +/- 0.1 degC)
[3] = target: T1, Ribonuclease pancreatic (Bos taurus); assay: Induction of bovine RNaseA internalization in human K562 cells assessed as internalization count at 1 uM after 3 hrs by flow cytometry; format: cell-based
[4] = target: T1, Ribonuclease pancreatic (Bos taurus); assay: Induction of bovine RNaseA internalization in human K562 cells assessed as internalization count at 10 uM after 3 hrs by flow cytometry; format: cell-based
[5] = target: T1, Ribonuclease pancreatic (Bos taurus); assay: Effect on bovine RNase A ribonucleolytic activity assessed as kcat/KM ratio of 6-FAM-dArUdAdA-6-TAMRA at 1 uM by fluorescence assay
[6] = target: T1, Ribonuclease pancreatic (Bos taurus); assay: Effect on bovine RNase A ribonucleolytic activity assessed as kcat/KM ratio of 6-FAM-dArUdAdA-6-TAMRA at 10 uM by fluorescence assay
Ribonuclease pancreatic = target: T2, Ribonuclease pancreatic (Bos taurus, UniProt P61823); assay: Inhibition of bovine RNase A interaction to ribonuclease inhibitor protein after 30 mins by competition assay
T2 sequence (P61823 whole entry): T1 sequence (whole entry)

K562 [7] = assay: Potentiation of bovine wild type RNase-A-induced cytotoxicity against human K562 cells assessed as incorporation of [methyl-3H]-thymidine into cellular DNA at 1 to 10 uM after 4 hrs by liquid scintillation counting; format: functional, cell-based
K562 [8] = assay: Potentiation of bovine RNase-A G88R mutant-induced cytotoxicity against human K562 cells assessed as incorporation of [methyl-3H]-thymidine into cellular DNA at 10 uM after 4 hrs by liquid scintillation counting; format: functional
K562 [9] = assay: Potentiation of bovine RNase-A DRNG mutant-induced cytotoxicity against human K562 cells assessed as incorporation of [methyl-3H]-thymidine into cellular DNA at 10 uM after 4 hrs by liquid scintillation counting; format: functional

Tm [1]: 62.8 °C
Tm [2]: 63.2 °C
Activity [3]: inactive
Activity [4]: inactive
Activity [5]: inactive
Activity [6]: inactive
Kd (Ribonuclease pancreatic): 3.1 µM
SMILES: NCCNC(=O)CCN(CCNC(=O)CCN(CCNC(=O)CCN(CCC(=O)NCCN(CCC(=O)NCCN(CCC(=O)NCCN)CCC(=O)NCCN)CCC(=O)NCCN(CCC(=O)NCCN)CCC(=O)NCCN)CCN(CCC(=O)NCCN(CCC(=O)NCCN(CCC(=O)NCCN)CCC(=O)NCCN)CCC(=O)NCCN(CCC(=O)NCCN)CCC(=O)NCCN)CCC(=O)NCCN(CCC(=O)NCCN(CCC(=O)NCCN)CCC(=O)NCCN)CCC(=O)NCCN(CCC(=O)NCCN)CCC(=O)NCCN)CCC(=O)NCCN(CCC(=O)NCCN)CCC(=O)NCCN)CCC(=O)NCCN [POLY(AMIDOAMINE)DENDRIMER]
Activity (K562 [7]): inactive
fold change (FC) (K562 [8]): 5
fold change (FC) (K562 [9]): 5
